Measured values from ChEMBL document CHEMBL1201862, “PubChem BioAssay data set” (2004).
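Tested at 5 concentrations; 48 h exposure; 96-well plates; endpoints linearly interpolated, else capped at highest concentration. GI50 = concentration required for 50% inhibition of growth.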 The source made the active and inactive calls. Cut-off read from the data, not from the text of the source: active = GI50 up to about 1.1 µM and inactive = higher.

Experiments:
Assay in all cases: inhibition of tumour cell growth, NCI panel, 48 h
[1] = system: CAKI-1
[2] = system: IGROV-1
[3] = system: HOP-62
[4] = system: HT-29
[5] = system: A498
[6] = system: UACC-62
[7] = system: UO-31
[8] = system: HOP-92
[9] = system: ACHN
[10] = system: NCI-H23
[11] = system: SF-295
[12] = system: BT-549
[13] = system: COLO 205
[14] = system: OVCAR-4
[15] = system: OVCAR-8
[16] = system: MOLT-4
[17] = system: HCT-15
[18] = system: T47D
[19] = system: SK-MEL-5
[20] = system: Hs-578T
[21] = system: K562
[22] = system: LOX IMVI
[23] = system: OVCAR-3
[24] = system: MDA-N
[25] = system: NCI-H226
[26] = system: TK-10
[27] = system: Malme-3M
[28] = system: SR
[29] = system: OVCAR-5
[30] = system: SN12C
[31] = system: MCF7
[32] = system: SK-MEL-2
[33] = system: RXF 393
[34] = system: NCI/ADR-RES
[35] = system: KM12
[36] = system: MDA-MB-231
[37] = system: MDA-MB-435
[38] = system: SK-OV-3
[39] = system: SK-MEL-28
[40] = system: HCT-116
[41] = system: NCI-H522
[42] = system: SW-620
[43] = system: U-251
[44] = system: M14
[45] = system: SF-268
[46] = system: EKVX
[47] = system: DU-145
[48] = system: 786-0
[49] = system: A549
[50] = system: UACC-257
[51] = system: RPMI-8226
[52] = system: PC-3
[53] = system: HL-60
[54] = system: SNB-19
[55] = system: SNB-75
[56] = system: SF-539
[57] = system: HCC 2998
[58] = system: NCI-H460
[59] = system: CCRF-CEM

Measured: GI50

CC(C)(C)OC(=O)CCC1NC(=O)[C@@H]2Cc3c([nH]c4ccccc34)C(C3CCCCC3)N2C1=O (stereo not given in full)
inactive: [1] 37.1 µM | [2] 36.8 µM | [3] 35.6 µM | [4] 18.6 µM | [5] 60.5 µM | [6] 45.3 µM | [7] 41.5 µM | [8] 33.2 µM | [9] 33.3 µM | [10] 39.6 µM | [11] 23.1 µM | [12] 48.8 µM | [13] 17.9 µM | [14] 28.8 µM | [15] 50.4 µM | [16] 12.4 µM | [18] 27.9 µM | [19] 31 µM | [20] 20.8 µM | [21] 32.4 µM | [22] 26.4 µM | [23] 26.2 µM | [24] 24.5 µM | [25] 36.2 µM | [26] 34.7 µM | [27] 29.1 µM | [28] 15.5 µM | [29] 53.2 µM | [30] 22.4 µM | [31] 26.7 µM | [32] 22.8 µM | [33] 20 µM | [34] 48.8 µM | [35] 24.9 µM | [36] 22 µM | [37] 30.8 µM | [38] 44.6 µM | [39] 68.9 µM | [40] 27 µM | [41] 30.3 µM | [42] 44.4 µM | [43] 27 µM | [44] 27.4 µM | [45] 31.4 µM | [46] 41.7 µM | [47] 57.3 µM | [48] 35.3 µM | [49] 26.4 µM | [50] 29.4 µM | [51] 16.4 µM | [52] 18.8 µM | [53] 16.6 µM | [54] 41.9 µM
34.6 µM: [17]

N#CCCC(C=O)(CCC#N)CCC#N
> 100 µM: [17]
inactive: [1] > 100 µM | [2] > 100 µM | [4] > 100 µM | [5] > 100 µM | [6] > 100 µM | [7] > 100 µM | [8] > 100 µM | [9] > 100 µM | [10] > 100 µM | [11] > 100 µM | [12] > 100 µM | [13] > 100 µM | [14] > 100 µM | [55] > 100 µM | [15] > 100 µM | [18] > 100 µM | [56] > 100 µM | [19] > 100 µM | [20] > 100 µM | [57] > 100 µM | [21] > 100 µM | [22] > 100 µM | [23] > 100 µM | [24] > 100 µM | [25] > 100 µM | [26] > 100 µM | [27] > 100 µM | [28] > 100 µM | [29] > 100 µM | [30] > 100 µM | [31] > 100 µM | [32] > 100 µM | [33] > 100 µM | [58] > 100 µM | [34] > 100 µM | [35] > 100 µM | [36] > 100 µM | [37] > 100 µM | [38] > 100 µM | [39] > 100 µM | [40] > 100 µM | [41] > 100 µM | [42] > 100 µM | [43] > 100 µM | [59] > 100 µM | [44] > 100 µM | [45] > 100 µM | [46] > 100 µM | [47] > 100 µM | [48] > 100 µM | [49] > 100 µM | [50] > 100 µM | [52] > 100 µM | [53] > 100 µM | [54] > 100 µM
